Data as given in patent US20250109121A1, “POTENT AND SELECTIVE SMARCA2 DEGRADING CHIMERIC MOLECULES AS CANCER THERAPEUTICS” (BOARD OF REGENTS, THE UNIVERSITY OF TEXAS SYSTEM, priority 2021, published 2025).
pIC50: −log10 of the molar value. “Also recorded” adds a separate entry of the source. Where two headings read alike, the source gives them in different places.

What was measured:
H2122 = assay: Cell proliferation (colony assay) IC50; format: cell-based; conditions: Homo sapiens, NCI-H2122; H2122, wild-type SMARCA4
Method: (§1) Cell lines with wild-type SMARCA4 (HCC44, H2122, H1792 and H1975) and cell lines with mutant SMARCA4 (H1693, HCC515, H322, and H1299) were seeded in appropriate dilutions to form colonies in about 1-3 weeks. Cells were treated with ACBI1 or Compound 101 at concentrations of 0.001, 0.01, 0.1, 1, and 10 μm. Colonies were fixed with glutaraldehyde (6% v/v), stained with crystal violet (0.5% w/v) and the percent area of colonies was determined (FIGS. 3A and 3B). In cell lines with wild-type SMARCA4, inhibition of colony growth was more pronounced after treatment with ACBI1 than Compound 101 (FIG. 3A).

H322 = assay: Cell proliferation (colony assay) IC50; format: cell-based; conditions: NCI-H322; H322, mutant SMARCA4
Method: as §1

H1693 = assay: Cell proliferation (colony assay) IC50; format: cell-based; conditions: Homo sapiens, NCI-H1693; H1693, mutant SMARCA4
Method: as §1

HCC515 = assay: Cell proliferation (colony assay) IC50; format: cell-based; conditions: Homo sapiens; HCC515, mutant SMARCA4
Method: as §1

H1975 = assay: Cell proliferation (colony assay) IC50; format: cell-based; conditions: Homo sapiens, NCI-H1975; H1975, wild-type SMARCA4; concentration at which 50% of cellular proliferation is inhibited
Method: as §1

H1792 = assay: Cell proliferation (colony assay) IC50; format: cell-based; conditions: Homo sapiens, NCI-H1792; H1792, wild-type SMARCA4
Method: as §1

HCC44 = assay: Cell proliferation (colony assay) IC50; format: cell-based; conditions: Homo sapiens; HCC44, wild-type SMARCA4
Method: as §1

H441 = assay: Cell proliferation (colony assay) IC50; format: cell-based; conditions: Homo sapiens, NCI-H441; H441, wild-type SMARCA4
SMARCA4 = SMARCA4 (Homo sapiens, UniProt P51532); assay: SMARCA4 degradation in cell lines, western blot; format: cell-based
SMARCA2 = SMARCA2 (Homo sapiens, UniProt P51531); assay: SMARCA2 degradation in cell lines, western blot; format: cell-based
Method: Cell lines with wild-type SMARCA4 (H1975, H1792, H2122, and H441) were treated with DMSO or 0.001, 0.01, 0.1, 1, or 10 μm of ACBI1 (degrader of SMARCA2, SMARCA4 and polybromo-associated BAF complex PBRM1) or Compound 101 and expression levels of SMARCA2 (FIG. 2A) and SMARCA4 (FIG. 2B) were detected by western blot.
Cell lines with wild-type SMARCA4 (H1792) and mutant SMARCA4 (H1299) were treated for 72 h or 96 h with DMSO or 0.001, 0.01, 0.1, 1, or 10 μm Compound 103 and analyzed by western blot for SMARCA2, SMARCA4, and PBRM1 expression (FIGS. 4A, 4B, and 4C).
Cell lines with wild-type SMARCA4 (H1792) and mutant SMARCA4 (H1299) were treated for 72 h or 96 h with DMSO or 0.001, 0.01, 0.1, 1, or 10 μm Compound 102 and analyzed by western blot for SMARCA2, SMARCA4, and PBRM1 expression (FIGS. 5A, 5B, and 5C).
Cell lines with wild-type SMARCA4 (H1975) were treated with DMSO or 0.001, 0.01, 0.1, 1, or 10 μm of Compounds 104, 105, 106, 107, or 108 and analyzed by western blot for SMARCA2, SMARCA4, and PBRM1 expression (FIGS. 6A and 6B).

mutant SMARCA4 cells = assay: Colony assay / cell proliferation, mutant SMARCA4 cell lines as a group; format: cell-based
Method: as §1

H2228 = assay: Cell proliferation (colony assay) IC50; format: cell-based; conditions: Homo sapiens, NCI-H2228; H2228, wild-type SMARCA4
[1] = system: HCC515 lung cancer xenograft; assay: In vivo anti-tumor efficacy, HCC515 lung cancer xenograft model; conditions: female NCR Nude mice, 12.5 mg/kg intraperitoneally once daily in 15% Solutol with 12.5 mg/kg ritonavir, versus vehicle
Method: About 1×10^7 HCC515 cells were injected into the flanks of female NCR Nude Mice. Tumor take was monitored visually and by palpation bi-weekly. Once tumors reached an average volume of 100 mm^3 mice were randomized into control and SMARCA2 degrader groups. Treatment cohorts were as follows: Vehicle was 15% Solutol in water together with 12.5 mg/kg of ritonavir as metabolic stabilizer. In the vehicle group, ten animals were injected with vehicle intraperitoneally. In the treatment group, ten animals were injected intraperitoneally once daily with 12.5 mg/kg of the SMARCA2 degrader Compound 101 in 15% Solutol in water together with 12.5 mg/kg of ritonavir as metabolic stabilizer.
Tumor diameter and volume were calculated based on caliper measurements of tumor length and […] using the formula tumor volume=(length×width^2)/2. Tumor volume and body weight were measured three times a week.

[2] = H441, wild-type SMARCA4 cell line
[3] = H1975, H1792, H2122, H441, 0.001-10 μm, increasing concentrations

SMARCA4, sequence (P51532 whole entry): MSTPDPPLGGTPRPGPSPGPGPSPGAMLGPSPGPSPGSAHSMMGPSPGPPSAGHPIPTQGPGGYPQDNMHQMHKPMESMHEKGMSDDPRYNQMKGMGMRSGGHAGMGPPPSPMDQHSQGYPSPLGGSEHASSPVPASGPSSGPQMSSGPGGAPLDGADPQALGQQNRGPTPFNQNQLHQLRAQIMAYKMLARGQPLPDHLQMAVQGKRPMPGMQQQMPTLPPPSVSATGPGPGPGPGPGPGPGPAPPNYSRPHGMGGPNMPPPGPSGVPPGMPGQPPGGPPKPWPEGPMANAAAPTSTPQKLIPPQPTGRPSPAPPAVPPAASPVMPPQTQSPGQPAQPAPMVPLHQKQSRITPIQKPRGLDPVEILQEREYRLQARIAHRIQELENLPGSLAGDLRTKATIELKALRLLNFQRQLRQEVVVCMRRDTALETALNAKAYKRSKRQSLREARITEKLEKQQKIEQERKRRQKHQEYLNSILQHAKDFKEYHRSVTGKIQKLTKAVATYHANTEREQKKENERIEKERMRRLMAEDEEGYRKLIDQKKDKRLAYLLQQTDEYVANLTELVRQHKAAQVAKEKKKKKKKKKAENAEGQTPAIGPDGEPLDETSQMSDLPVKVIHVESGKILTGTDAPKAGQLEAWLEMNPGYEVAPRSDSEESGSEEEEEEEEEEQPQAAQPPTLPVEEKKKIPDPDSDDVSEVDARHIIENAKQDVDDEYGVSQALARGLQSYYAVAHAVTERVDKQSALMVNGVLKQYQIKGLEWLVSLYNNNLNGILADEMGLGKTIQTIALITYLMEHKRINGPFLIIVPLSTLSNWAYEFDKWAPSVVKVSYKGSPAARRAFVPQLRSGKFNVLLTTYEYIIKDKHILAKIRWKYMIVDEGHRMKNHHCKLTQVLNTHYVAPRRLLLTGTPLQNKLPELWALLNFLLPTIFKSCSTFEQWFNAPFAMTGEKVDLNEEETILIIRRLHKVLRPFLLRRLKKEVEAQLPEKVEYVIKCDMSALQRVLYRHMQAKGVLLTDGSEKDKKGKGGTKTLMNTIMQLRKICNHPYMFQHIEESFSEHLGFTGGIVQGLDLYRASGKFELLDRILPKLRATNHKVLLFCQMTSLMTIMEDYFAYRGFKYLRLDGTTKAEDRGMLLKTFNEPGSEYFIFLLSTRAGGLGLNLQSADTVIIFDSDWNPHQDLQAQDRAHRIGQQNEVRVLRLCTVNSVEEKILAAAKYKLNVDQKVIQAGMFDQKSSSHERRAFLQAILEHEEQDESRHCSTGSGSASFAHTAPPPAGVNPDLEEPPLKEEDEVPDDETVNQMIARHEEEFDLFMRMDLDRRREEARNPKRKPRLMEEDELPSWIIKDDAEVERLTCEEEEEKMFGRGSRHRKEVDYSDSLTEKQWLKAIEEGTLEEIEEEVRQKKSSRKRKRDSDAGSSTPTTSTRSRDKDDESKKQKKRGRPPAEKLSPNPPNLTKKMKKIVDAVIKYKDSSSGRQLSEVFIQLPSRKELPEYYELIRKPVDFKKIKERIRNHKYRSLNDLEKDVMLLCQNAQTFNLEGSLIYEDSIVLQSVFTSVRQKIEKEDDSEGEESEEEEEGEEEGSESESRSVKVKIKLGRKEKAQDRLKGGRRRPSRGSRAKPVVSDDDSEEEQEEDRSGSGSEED
SMARCA2, sequence (P51531 whole entry): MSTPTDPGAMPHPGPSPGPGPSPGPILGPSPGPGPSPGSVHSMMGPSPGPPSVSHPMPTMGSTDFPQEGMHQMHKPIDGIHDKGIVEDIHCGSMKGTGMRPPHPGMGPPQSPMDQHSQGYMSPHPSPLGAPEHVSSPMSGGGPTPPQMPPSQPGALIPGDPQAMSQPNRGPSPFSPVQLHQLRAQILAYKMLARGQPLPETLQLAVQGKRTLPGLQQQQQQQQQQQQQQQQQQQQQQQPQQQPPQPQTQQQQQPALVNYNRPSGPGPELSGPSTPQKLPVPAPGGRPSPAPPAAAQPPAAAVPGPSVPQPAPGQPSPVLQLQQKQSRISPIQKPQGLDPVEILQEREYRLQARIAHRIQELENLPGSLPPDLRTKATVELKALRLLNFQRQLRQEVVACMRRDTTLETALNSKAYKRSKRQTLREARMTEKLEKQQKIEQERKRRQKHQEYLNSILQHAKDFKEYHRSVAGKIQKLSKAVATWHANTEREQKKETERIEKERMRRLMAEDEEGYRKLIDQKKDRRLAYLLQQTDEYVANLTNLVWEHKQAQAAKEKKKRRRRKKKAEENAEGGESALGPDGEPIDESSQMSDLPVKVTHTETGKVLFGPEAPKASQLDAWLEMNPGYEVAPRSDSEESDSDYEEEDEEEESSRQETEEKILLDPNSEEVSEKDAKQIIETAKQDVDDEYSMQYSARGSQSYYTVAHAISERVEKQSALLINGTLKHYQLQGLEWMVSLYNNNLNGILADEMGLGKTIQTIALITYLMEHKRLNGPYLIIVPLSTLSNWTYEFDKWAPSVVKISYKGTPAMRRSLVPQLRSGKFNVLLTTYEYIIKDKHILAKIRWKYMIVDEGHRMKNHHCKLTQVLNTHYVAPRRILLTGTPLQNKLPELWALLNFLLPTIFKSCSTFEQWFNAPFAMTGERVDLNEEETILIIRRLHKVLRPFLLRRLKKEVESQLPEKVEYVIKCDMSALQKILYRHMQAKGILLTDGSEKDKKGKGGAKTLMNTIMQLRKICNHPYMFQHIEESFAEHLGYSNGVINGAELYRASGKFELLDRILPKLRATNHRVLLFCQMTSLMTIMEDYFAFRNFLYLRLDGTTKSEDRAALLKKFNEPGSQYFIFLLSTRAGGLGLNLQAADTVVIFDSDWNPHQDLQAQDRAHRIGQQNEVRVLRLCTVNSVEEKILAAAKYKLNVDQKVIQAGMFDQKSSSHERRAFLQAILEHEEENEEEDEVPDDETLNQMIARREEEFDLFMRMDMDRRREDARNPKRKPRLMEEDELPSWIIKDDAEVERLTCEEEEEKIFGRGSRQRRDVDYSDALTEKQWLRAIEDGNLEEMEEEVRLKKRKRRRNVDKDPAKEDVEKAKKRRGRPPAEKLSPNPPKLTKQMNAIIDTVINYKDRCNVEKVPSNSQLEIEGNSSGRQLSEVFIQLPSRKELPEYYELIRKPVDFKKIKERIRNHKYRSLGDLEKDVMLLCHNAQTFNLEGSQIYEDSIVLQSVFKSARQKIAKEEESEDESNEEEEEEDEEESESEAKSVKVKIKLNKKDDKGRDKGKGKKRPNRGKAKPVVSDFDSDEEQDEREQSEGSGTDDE

Nc1nnc(-c2ccccc2O)cc1N1CCN(Cc2ccc(OCCOCCNc3cccc4c3C(=O)N(C3CCC(=O)NC3=O)C4=O)c(F)c2)CC1 (centres unmarked) [Compound 101]
pIC50 (H2122): 5.59 | pIC50 (H322): 7.03 | pIC50 (H1693): 6.85 | pIC50 (HCC515): 6.09 | pIC50 (H1975): < 5.00 | pIC50 (H1792): 5.06 | pIC50 (HCC44): 5.60 | pIC50 (H441): < 5.00 | SMARCA4 Dmax (%) (SMARCA4; [2]): 37% | DC50 (SMARCA4; H441, wild-type SMARCA4 cell line, read-out: SMARCA4 DC50): > 10000 nM | DC50 (SMARCA4; H1792, wild-type SMARCA4 cell line, read-out: SMARCA4 DC50): > 10000 nM | Dmax (SMARCA4; H1975, H1792, H2122, H441 (Table 3), read-out: SMARCA4 Dmax, span over cell lines): 38 to 50% | SMARCA4 degradation (western blot, in words) (SMARCA4; [3]): degraded SMARCA2 and SMARCA4 | DC50 (SMARCA4; H1975, wild-type SMARCA4 cell line, read-out: SMARCA4 DC50): > 10000 nM | DC50 (SMARCA4; H2122, wild-type SMARCA4 cell line, read-out: SMARCA4 DC50): > 10000 nM | DC50 (SMARCA4; H2228, wild-type SMARCA4 cell line, read-out: SMARCA4 DC50): > 10000 nM | Dmax (SMARCA4; HCC44, HCC44, wild-type SMARCA4 cell line, read-out: SMARCA4 Dmax (%)): 39% | DC50 (SMARCA4; HCC44, wild-type SMARCA4 cell line, read-out: SMARCA4 DC50): > 10000 nM | Dmax (SMARCA4; HCC827, HCC827, wild-type SMARCA4 cell line, read-out: SMARCA4 Dmax (%)): 39% | DC50 (SMARCA4; HCC827, wild-type SMARCA4 cell line, read-out: SMARCA4 DC50): > 10000 nM | DC50 (SMARCA4; HCC2279, wild-type SMARCA4 cell line, read-out: SMARCA4 DC50): 560 nM | Dmax (SMARCA4; HCC2279, wild-type SMARCA4 cell line, read-out: SMARCA4 Dmax (%)): 79% | DC50 (SMARCA4; HOP62, wild-type SMARCA4 cell line, read-out: SMARCA4 DC50): 1410 nM | Dmax (SMARCA4; HOP-62, HOP62, wild-type SMARCA4 cell line, read-out: SMARCA4 Dmax (%)): 77% | Dmax (SMARCA4; NCI-H441, H441, wild-type SMARCA4 cell line, read-out: SMARCA4 Dmax (%)): 50% | Dmax (SMARCA4; NCI-H1792, H1792, wild-type SMARCA4 cell line, read-out: SMARCA4 Dmax (%)): 38% | Dmax (SMARCA4; NCI-H2122, H2122, wild-type SMARCA4 cell line, read-out: SMARCA4 Dmax (%)): 47% | Dmax (SMARCA4; NCI-H2228, H2228, wild-type SMARCA4 cell line, read-out: SMARCA4 Dmax (%)): 25% | Dmax (SMARCA4; wild-type SMARCA4 cells (Table 4), read-out: SMARCA4 Dmax, span over cell lines): 38 to 79% | DC50 (SMARCA4; wild-type SMARCA4 cells (Table 4), upper end printed as above 10 μM, read-out: DC50 for SMARCA4 degradation, lower end of span over cell lines): ≥ 560 nM | DC50 (SMARCA2; [2]): 99 nM | DC50 (SMARCA2; H1792, wild-type SMARCA4 cell line): 94 nM | SMARCA2 degradation (western blot, in words) (SMARCA2; [3]): degraded SMARCA2 and SMARCA4 | DC50 (SMARCA2; H1975, wild-type SMARCA4 cell line, concentration at which 50% of the target protein is degraded): 103 nM | DC50 (SMARCA2; H2122, wild-type SMARCA4 cell line): 292 nM | selectivity in degrading SMARCA2 compared to SMARCA4, relative to ACBI1 (SMARCA2; wild-type SMARCA4 cell lines H1975, H1792, H2122, H441): greater than 100 times | colony growth / proliferation of mutant SMARCA4 cells (in words) (mutant SMARCA4 cells; H1693, HCC515, H322, H1299, 0.001-10 μm): selectively inhibited SMARCA4 mutant cells; also recorded: selectively inhibited cell proliferation in mutant SMARCA4 cell lines | pIC50 (mutant SMARCA4 cells; mutant SMARCA4 cells (Table 5), upper end printed as >10 M, read-out: IC50, lower end of span over cell lines): ≤ 7.03 | inhibition at 0.1 µM (mutant SMARCA4 cells; read-out: inhibition at 100 nM in SMARCA4 mutant cells (see FIG. 3D)): ≤ 50% | pIC50 (H2228): 6.01 | tumor volume (in words) [1]: substantial reduction in tumor volume
